{"source": "patent US7846708B2", "about": "“Method for increasing the survival of bacterial strains of the Rhizobium genus” (Consiglo Nazionale delle Richerch, priority 2005, dated 2010)", "key": {"[1]": {"test_system": "Sinorhizobium meliloti 1021", "assay": "Growth and survival test in liquid minimal medium (colonies on agar plates after prolonged stationary phase)", "format": "cell-based", "settings": "for ability to generate colonies with respect to the reference strain (1021): FIG. 6; for increase of the ability to generate colonies: FIG. 7, 7 and 15 days after IAA addition", "description": "For the growth and survival tests the minimal medium was utilized. A culture of the various strains was kept in growth stationary phase for two days, then they were collected, properly diluted and plated at the various recommended periods of time so as to obtain about 100-1000 colonies per plate. For the strains to be treated with IAA, the addition (0.05 or 0.5 mM IAA) occurred after two days of growth in stationary phase, then the bacteria were diluted and plated.\nThe author has evaluated the ability of S. meliloti 1021 to generate colonies on agar plates after prolonged incubation in growth medium. The formed colonies were counted on at least five plates and the experiment was repeated at least five times.\n(§1) The number of colonies of not treated Sinorhizobium meliloti 1021 was compared to the one of the same strain treated with IAA (0.05 mM and 0.5 mM) two days after reaching the stationary phase of bacterial growth. The percentage value of the surviving cells was measured several days after treatment. Applied stresses were: pH 3 (acid stress): cells were incubated for 30 minutes and then plated; NaCl 0.5 M (high osmotic pressure): 3 hours incubation; UV light resistance: time was not determined but the UV dose was selected to reach an irradiation dosage of 100 J/m^2; treatment at high temperature 55° C.: cells were incubated for 5 minutes; treatment at low temperature (4° C.) cells were incubated for up to 60 days at 4° C.\nIn fact, the following groups were compared: • Sm 1021; • Sm 1021 additioned with 0.5 mM IAA; • Sm 1021 additioned with 0.05 mM IAA; • Sm 1021 containing the wild promoter-iaaMtms2 construct (RD 64) • Sm 1021 containing the promoter-iaaMtms2 construct mutated in the −16/−14 GAC region (RD65); • Sm 1021 containing the promoter-iaaMtms2 construct mutated in the −48, 49, 51, 52 G region (RD66); • Sm 1021 containing the promoter-iaaMtms2 construct mutated in the −40-37 CCCC (RD67); b) Effect of Various IAA Concentrations on the Survival of Sinorhizobium Meliloti 1021\nIn order to evaluate the effect of different IAA concentrations on the survival of Sinorhizobium meliloti 1021 the number of colonies generated on agar plates were evaluated (see FIG. 7). The utilized concentrations were 0.05; 0.2; 0.5; and 2 mM IAA. The inocula of the wild strain not treated with IAA were used as controls as well as the RD64 strain. The number of colonies of S.m. 1021 was arbitrarily set equal to 100%. The number of colonies generated after 7 and 15 days of growth after the IAA addition in the growth liquid medium was evaluated."}, "[2]": {"test_system": "S. meliloti 1021", "assay": "Survival at low temperature (4° C.), colony counting", "format": "cell-based, Sinorhizobium meliloti", "settings": "0.5 mM IAA; after 45 and 60 days at 4° C.; FIG. 9", "description": "FIG. 9: Survival at 4° C. of wild type S. meliloti 1021 treated with IAA and of the strain RD64. The bacterial cells of the three analysed strains (wild type S.m. 1021, S.m. treated with 0.5 mM IAA and RD64) were grown until exponential phase, then plated and the plates were incubated at 4° C. for 15, 30, 45 and 60 days. Every 15 days, a plate group of each strain was transferred to 30° C. for one day and the colonies were counted.\nFurthermore, the author has assayed for the ability of the same strains to resist to prolonged incubations at low temperature (4° C.). The cells of the same three strains: Sm 1021, Sm 1021 treated with 0.5 mM IAA and the strain RD64, were grown until an optical density of 0.6, plated and incubated at 4° C. for periods of time variable up to two months."}, "[3]": {"test_system": "Sinorhizobium meliloti 1021", "assay": "Effect of dehydration on survival (vacuum-dried cells plated at increasing times)", "format": "cell-based", "description": "A culture of the wild strain S. meliloti 1021, of the strain 64 and 66 were kept in growth stationary phase for three days, then they were dehydrated […] and plated at the various times shown in figure. Furthermore, a culture of the wild strain 1021 was subjected to analogous treatment, thereto 0.05 mM IAA were added after two days of growing in stationary phase, the stationary growth continued for a third day and then the bacteria were dehydrated and processed like the preceding samples.\nFor the dehydration test (FIG. 8), the cells were grown until reaching the stationary phase and kept for 3 days in stationary phase. The cells were centrifuged at 4000 rpm for 15′, washed in water and counted on plates as live colonies. The cells were then diluted so as to be aliquoted in Eppendorf tubes at the concentration of 1:10000 for each sample and then vacuum-dried in Savant centrifuge. After 4, 8, 14 and 32 days, the aliquots were plated on TYR selective medium, the formed colonies were counted on at least three plates and the experiment was repeated at least three times."}, "[4]": {"test_system": "Sinorhizobium meliloti strain 1021 cells", "assay": "Cell resistance of Sinorhizobium meliloti cells to various stress conditions (colony counting after stress)", "format": "cell-based", "description": "as §1\nThe author has assayed for the bacteria resistance to stresses such as low and high temperatures. For the resistance to high temperatures the cells were grown in exponential phase (optical density 0.6) and then incubated for 2 minutes at room temperature or at 55° C. and then plated.\nSinorhizobium meliloti strain 1021 cells and its derivative RD64 overproducing IAA, were exposed to different stress conditions and the number of surviving cells counted by plating opportune dilutions on agar plates; after plates incubation at 30° C., the number of emerging colonies were counted (Table 1).\nAs a control untreated cells were plated and the number of colonies was considered as 100% for that condition. Stress applied were: • 1) low pH, pH 3, treatment: 30 minutes; • 2) high osmotic pressure (0.5 M NaCl): 3 hours; • 3) UV irradiation were automatically set at 100 J/m^2 and cells were irradiate for less that 1 minute; • 4) High (55° C.) temperature treatment: 5 minutes. Results A) Expression of the Beta-glucuronidase Modulated by the Mutation in the Promoter-iaaMtms2 Sequence"}}}
{"smiles": "O=C(O)Cc1c[nH]c2ccccc12", "note": "[IAA, indole-3-acetic acid]", "values": [{"measurement": "ability to generate colonies with respect to the reference strain (1021)", "setting": "[1]; 0.05 mM IAA added after two days in stationary phase", "result": "greater ability to generate colonies"}, {"measurement": "increase of the ability to generate colonies", "setting": "[1]; 0.2 mM IAA", "result": "effective to increase the ability to generate colonies"}, {"measurement": "ability to generate colonies with respect to the reference strain (1021)", "setting": "[1]; 0.5 mM IAA added after two days in stationary phase", "result": "greater ability to generate colonies"}, {"measurement": "increase of the ability to generate colonies", "setting": "[1]; 0.5 mM IAA", "result": "effective to increase the ability to generate colonies"}, {"measurement": "total increase in the number of live cells in liquid culture with respect to the wild strain", "setting": "[1]; purified IAA at 0.5 mM, after two growth weeks", "result": "at least 100%"}, {"measurement": "number of cells able to generate colonies after incubation at 4° C. with respect to the not treated strain", "setting": "[2]", "result": "almost the double"}, {"measurement": "increase of the survival of the bacterial cells under dehydration", "setting": "[3]; IAA at 0.05 mM, FIG. 8", "result": "up to 50%"}, {"measurement": "additional increase in the cellular survival of pelleted, dehydrated and plated cells", "setting": "[3]; IAA purified at 0.05 mM, after two weeks", "result": "up to 40%"}, {"measurement": "Survival (%), Osmotic shock (+0.5 M NaCl)", "setting": "[4]; 0.5 M NaCl, 3 hours, unstressed cells = 100%, IAA added at 0.5 mM to 1021, strain 64 without addition", "result": "78 ± 1", "unit": "%"}, {"measurement": "Survival (%), Heat-shock (55° C.)", "setting": "[4]; 55° C., 5 minutes, unstressed cells = 100%, IAA added at 0.5 mM to 1021, strain 64 without addition", "result": "0.196 ± 0.021", "unit": "%"}, {"measurement": "more resistant than the untreated 1021, high temperature", "setting": "[4]; 55° C., relative to untreated 1021", "result": 10, "unit": "%"}, {"measurement": "Survival (%), UV-irradiation (100 J/m^2)", "setting": "[4]; 100 J/m^2, unstressed cells = 100%, IAA added at 0.5 mM to 1021, strain 64 without addition", "result": "86 ± 1", "unit": "%"}, {"measurement": "more resistant than the untreated 1021, intense UV irradiation", "setting": "[4]; UV irradiation, relative to untreated 1021", "result": 10, "unit": "%"}, {"measurement": "colonies generated more than the control after heat shock", "setting": "[4]; heat shock, IAA at 0.05 mM as printed, relative to S.m. 1021", "result": "up to 20%"}, {"measurement": "more resistant than the untreated 1021, high osmotic solution", "setting": "[4]; high osmotic solution, relative to untreated 1021", "result": 50, "unit": "%"}, {"measurement": "more resistant than the untreated 1021, very low pH", "setting": "[4]; pH3, 30 minutes, relative to untreated 1021", "result": 100, "unit": "%"}, {"measurement": "Survival (%), Acid shock (pH 3.0)", "setting": "[4]; pH 3, 30 minutes, unstressed cells = 100%, IAA added at 0.5 mM to 1021, strain 64 without addition", "result": "0.0023 ± 0.0006", "unit": "%"}]}
